Test results published in patent US20230174945A1, “METHOD FOR INDUCING DIFFERENTIATION INTO PANCREATIC ALPHA CELLS” (KANEKA CORPORATION, priority 2020, published 2023).

How the values were obtained:
[1] = system: human iPS cells; assay: Quantitative RT-PCR of cells differentiated from human iPS cells, with additives in the endodermal cell to primitive gut tube (PGT) cell step; assay type: cell-based; settings: added to medium for 3 days when inducing endodermal cells into PGT cells (0.67 µM LDN193189, 1 µM EC23); compared to cells of Comparative Example 1; standardized by OAZ1; FIG. 1
Experimental: Differentiation was induced by the same method as in Comparative Example 1 up to the endodermal cells. For induction of differentiation from the endodermal cells into primitive gut tube (PGT) cells, the suspension culture was implemented for 3 days in a medium obtained by adding 0.67 µM LDN193189 to the medium used in Comparative Example 1, a medium obtained by adding 1 µM EC23 to the medium used in Comparative Example 1, or a medium obtained by adding both of them to the medium used in Comparative Example 1. In addition, 2.5 µM Y-27632 was added to the above-mentioned medium for the purpose of maintaining the shape of the clumps. A 30 mL single-use bioreactor was mounted on a six-channel magnetic stirrer, and while stirring at the speed of 45 rpm, the suspension culture was implemented in a 5% CO2 incubator at 37° C. Induction of differentiation after posterior foregut (PFG) cells was performed in the same method as in Comparative Example 1.
Total RNA was isolated and purified from the cells obtained by inducing differentiation in (1) using Isogen (Nippon Gene), and cDNA was synthesized from the obtained total RNA using PrimeScriptII (TaKaRa Bio Inc.). Using the obtained cDNA as a template, quantitative PCR was implemented by means of a MyiQ qPCR machine (Bio-Rad), using GoTaq qPCR master mix (Promega). For the detection, the intercalation method using SYBR Green was used, and for the gene expression level comparison, the relative quantification method by means of the ΔΔCt method or the ΔCt method was used. The expression level of each gene was standardized by OAZ1 which is a housekeeping gene.

[2] = system: human iPS cells; assay: Measurement of GCG (glucagon) secretion amount by Glucagon ELISA; assay type: cell-based; settings: ascorbic acid removed from differentiation medium after PGT cells (Example 2) compared to medium with 0.25 mM ascorbic acid (Example 1); 2.0 mM glucose, 1 hour; FIG. 2
Experimental: Primitive gut tube (PGT) cells were produced from human iPS cells by the same method as in Example 1. The obtained primitive gut tube (PGT) cells were induced to differentiate into cells after posterior foregut (PFG) cells using a medium obtained by removing ascorbic acid from the medium of Comparative Example 1. The cells obtained by inducing differentiation in (1) were recovered in 2 × 10^6 cells and cultured for 30 minutes in a DMEM medium (containing 2 mM glucose) containing 10 mM HEPES and 0.1 (volume/volume)% BSA. Thereafter, the cells were washed twice with a DMEM medium (without glucose) containing 10 mM HEPES and 0.1 (volume/volume)% BSA. Thereafter, the cells were cultured for 1 hour in a DMEM medium containing 1 mL of 2.0 mM glucose, 10 mM HEPES, and 0.1 (volume/volume)% BSA. Thereafter, the GCG concentration contained in the culture supernatant was measured using a Glucagon ELISA 10 µl Kit (Mercodia). The GCG secretion amounts of the cells obtained in Example 1 and Comparative Example 1 were also measured as comparison targets by the above-mentioned method.

CC1(C)CCC(C)(C)c2cc(C#Cc3ccc(C(=O)O)cc3)ccc21 [EC23]
expression level of the GCG gene [1]: up-regulation

c1ccc2c(-c3cnn4cc(-c5ccc(N6CCNCC6)cc5)cnc34)ccnc2c1 [LDN193189]
expression level of the INS gene [1]: down-regulation
expression level of the NKX6.1 gene [1]: down-regulation

O=C1O[C@H]([C@@H](O)CO)C(O)=C1O [ascorbic acid]
glucagon secretion amount [2]: larger
